Reference: PubChem BioAssay AID248 (DTP/NCI, 2004)
Where “and” joins values, the source holds several entries; their conditions need not be identical. Equal values may be shown once. Inconclusive results and toxic doses are left out. Rule as the data show it: active = T/C of 150% or more; inactive = T/C below 125%. Peptide text beside a SMILES is read from it. * marks the point of attachment. Cbz = O=C(OCc1ccccc1)*

Tested on: L1210 leukemia ip in BDF1 mice, survival T/C
Assay: NCI In Vivo Anticancer Drug Screen. Data for tumor model L1210 Leukemia (intraperitoneal) in B6D2F1 (BDF1) mice
Details: endpoint: mean survival time, higher = longer survival
Procedure, shortened: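 Tumor was transplanted into mice, which were then dosed with test compound or vehicle alone. Survival was recorded for each group, and the treated figure was expressed relative to the control figure.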

[1] = dose: 100.0 mg/kg/injection, schedule: Q04DX003 (ip), vehicle: saline with Tween-80
[2] = dose: 200.0 mg/kg/injection, schedule: Q04DX003 (ip), vehicle: saline with Tween-80
[3] = dose: 400.0 mg/kg/injection, schedule: Q04DX003 (ip), vehicle: saline with Tween-80
[4] = dose: 100.0 mg/kg/injection, schedule: Q01DX009 (ip), vehicle: Klucel (hydroxypropylcellulose) (HPC)
[5] = dose: 200.0 mg/kg/injection, schedule: Q01DX009 (ip), vehicle: Klucel (hydroxypropylcellulose) (HPC)
[6] = dose: 100.0 mg/kg/injection, schedule: Q04DX003 (ip), vehicle: saline
[7] = dose: 200.0 mg/kg/injection, schedule: Q04DX003 (ip), vehicle: saline
[8] = dose: 400.0 mg/kg/injection, schedule: Q04DX003 (ip), vehicle: saline
[9] = dose: 50.0 mg/kg/injection, schedule: Q01DX001 (ip), vehicle: carboxymethylcellulose (CMC)
[10] = dose: 100.0 mg/kg/injection, schedule: Q01DX001 (ip), vehicle: carboxymethylcellulose (CMC)
[11] = dose: 200.0 mg/kg/injection, schedule: Q01DX001 (ip), vehicle: carboxymethylcellulose (CMC)
[12] = dose: 100.0 mg/kg/injection, schedule: Q04DX003 (ip), vehicle: Klucel (hydroxypropylcellulose) (HPC)
[13] = dose: 200.0 mg/kg/injection, schedule: Q04DX003 (ip), vehicle: Klucel (hydroxypropylcellulose) (HPC)
[14] = dose: 400.0 mg/kg/injection, schedule: Q01DX009 (ip), vehicle: Klucel (hydroxypropylcellulose) (HPC)
[15] = dose: 400.0 mg/kg/injection, schedule: Q04DX003 (ip), vehicle: Klucel (hydroxypropylcellulose) (HPC)
[16] = dose: 100.0 mg/kg/injection, schedule: Q01DX001 (ip), vehicle: saline
[17] = dose: 200.0 mg/kg/injection, schedule: Q01DX001 (ip), vehicle: saline
[18] = dose: 400.0 mg/kg/injection, schedule: Q01DX001 (ip), vehicle: saline
[19] = dose: 100.0 mg/kg/injection, schedule: Q04DX002 (ip), vehicle: Klucel (hydroxypropylcellulose) (HPC)
[20] = dose: 200.0 mg/kg/injection, schedule: Q04DX002 (ip), vehicle: Klucel (hydroxypropylcellulose) (HPC)
[21] = dose: 400.0 mg/kg/injection, schedule: Q04DX002 (ip), vehicle: Klucel (hydroxypropylcellulose) (HPC)

Measured: T/C

CCCCCCCCCCCC(C)(O)CC (stereo not drawn)
inactive: [1] 95 % of control | [2] 95 % of control | [3] 101 % of control

Cc1cc2c(-c3ccccc3)nc3ccccc3n2c1Cl
inactive: dose: 50.0 mg/kg/injection, schedule: Q01DX009 (ip), vehicle: Klucel (hydroxypropylcellulose) (HPC) 92 % of control | [4] 95 % of control | [5] 103 % of control

Nc1ccc(OC(=O)Nc2ccc(O)cc2)cc1
inactive: dose: 53.0 mg/kg/injection, schedule: Q01DX Z (ip), vehicle: other 94 % of control | dose: 80.0 mg/kg/injection, schedule: Q01DX Z (ip), vehicle: other 97 % of control | dose: 80.0 mg/kg/injection, schedule: Q01DX Z (ip), vehicle: saline 89 % of control | dose: 120.0 mg/kg/injection, schedule: Q01DX Z (ip), vehicle: other 105 % of control | dose: 180.0 mg/kg/injection, schedule: Q01DX Z (ip), vehicle: other 100 % of control | dose: 180.0 mg/kg/injection, schedule: Q01DX Z (ip), vehicle: saline 92 % of control | dose: 270.0 mg/kg/injection, schedule: Q01DX Z (ip), vehicle: other 102 % of control | dose: 270.0 mg/kg/injection, schedule: Q01DX Z (ip), vehicle: saline 93 % of control | dose: 404.0 mg/kg/injection, schedule: Q01DX Z (ip), vehicle: other 100 % of control | dose: 405.0 mg/kg/injection, schedule: Q01DX Z (ip), vehicle: saline 92 % of control

Nc1ncnc2c1ncn2C1CC(O)C(CO)O1 (stereo not drawn)
inactive: [1] 101 % of control | [6] 98 % of control | [2] 98 % of control | [7] 104 % of control | [3] 98 % of control | [8] 93 % of control | dose: 440.0 mg/kg/injection, schedule: Q03HX024 (ip), vehicle: saline with Tween-80 105 % of control | dose: 660.0 mg/kg/injection, schedule: Q03HX024 (ip), vehicle: saline with Tween-80 110 % of control | dose: 1000.0 mg/kg/injection, schedule: Q03HX024 (ip), vehicle: saline with Tween-80 104 % of control

CC(NC(=O)C(CCC(=O)O)NC(=O)C(N)Cc1c[nH]c2ccccc12)C(=O)NCC(=O)NC(Cc1c[nH]c2ccccc12)C(=O)NC(CCC(=O)O)C(=O)NC(C)C(=O)NCC(=O)NCC(=O)O (stereo not drawn) (H-WEAGWEAGG-OH; configuration not given here)
inactive: [9] 96 % of control | [10] 98 % of control | [11] 96 % of control

CC1CCCC(c2ccccc2)C1 (stereo not drawn)
inactive: dose: 100.0 mg/kg/injection, schedule: Q01DX001 (ip), vehicle: saline with Tween-80 97 % of control | dose: 200.0 mg/kg/injection, schedule: Q01DX001 (ip), vehicle: saline with Tween-80 102 % of control | dose: 400.0 mg/kg/injection, schedule: Q01DX001 (ip), vehicle: saline with Tween-80 101 % of control

COP(=O)(OC)C(OC(=O)C(C)(C)C)=C(C)C
inactive: [1] 98 % of control | [2] 110 % of control | [3] 93 % of control

CC12CC3CC(C)(C1)CC(SCCN=C(N)CCl)(C3)C2
inactive: dose: 10.0 mg/kg/injection, schedule: Q04DX002 (ip), vehicle: Klucel (hydroxypropylcellulose) (HPC) 105 % of control | dose: 20.0 mg/kg/injection, schedule: Q04DX002 (ip), vehicle: Klucel (hydroxypropylcellulose) (HPC) 102 % of control | dose: 40.0 mg/kg/injection, schedule: Q04DX002 (ip), vehicle: Klucel (hydroxypropylcellulose) (HPC) 110 % of control

O=C(O)CNC(=O)CNC(=O)OCc1ccccc1 (Cbz-Gly-Gly-OH)
inactive: [4] 95 % of control | [12] 97 % of control | [5] 95 % of control | [13] 101 % of control | [14] 100 % of control | [15] 94 % of control

CC(=O)OC1COC(n2cnc3c(N4CCCCC4)ncnc32)C(OC(C)=O)C1OC(C)=O (stereo not drawn)
inactive: [16] 100 % of control | [17] 96 % of control | [18] 96 % of control

Cc1cc(N(C)C)c([N+](=O)[O-])cc1C=O
inactive: [4] 98 % of control | [12] 100 % of control | [5] 96 % of control | [13] 94 % of control | [14] 96 % of control | [15] 94 % of control

C=C(C)C(=O)CC(=O)C1CCc2cc(OC)ccc2C1=O (stereo not drawn)
inactive: dose: 100.0 mg/kg/injection, schedule: Q01DX009 (ip), vehicle: saline sonified 102 % of control | dose: 200.0 mg/kg/injection, schedule: Q01DX009 (ip), vehicle: saline sonified 96 % of control | dose: 400.0 mg/kg/injection, schedule: Q01DX009 (ip), vehicle: saline sonified 100 % of control

Cc1cc2[nH]c(=O)[nH]c2cc1C
inactive: [1] 98 % of control | [2] 88 % of control

O=[N+]([O-])c1ccccc1C1OCCO1
inactive: [9] 95 % of control | [10] 93 % of control | [11] 101 % of control | dose: 400.0 mg/kg/injection, schedule: Q01DX001 (ip), vehicle: carboxymethylcellulose (CMC) 93 % of control

O=[N+]([O-])c1ccccc1NC1OC(CO)C(O)C1O (stereo not drawn)
inactive: dose: 100.0 mg/kg/injection, schedule: Q04DX002 (ip), vehicle: saline with Tween-80 102 % of control | dose: 200.0 mg/kg/injection, schedule: Q04DX002 (ip), vehicle: saline with Tween-80 98 % of control | dose: 400.0 mg/kg/injection, schedule: Q04DX002 (ip), vehicle: saline with Tween-80 102 % of control

COC1OC(CO)C(O)C(NC(=O)NCCCl)C1O (stereo not drawn)
inactive: [16] 113 % of control | [17] 111 % of control | [18] 103 % of control

CCCCOP(=O)(OCCCC)Oc1c(Cl)c(Cl)c(Cl)c(Cl)c1Cl
inactive: dose: 100.0 mg/kg/injection, schedule: Q04DX002 (sc), vehicle: olive oil, sesame oil, peanut oil 107 % of control | dose: 200.0 mg/kg/injection, schedule: Q04DX002 (sc), vehicle: olive oil, sesame oil, peanut oil 100 % of control | dose: 400.0 mg/kg/injection, schedule: Q04DX002 (sc), vehicle: olive oil, sesame oil, peanut oil 104 % of control

ClC1(Cl)C2(c3ccccc3)OC(c3ccccc3)(c3ccccc32)C1(Cl)Cl
inactive: [19] 97 % of control | [20] 97 % of control | [21] 102 % of control

CC(O)(CC(c1ccccc1)N1CCc2ccccc2C1)c1ccccc1 (stereo not drawn)
inactive: [6] 105 % of control | [7] 102 % of control | [8] 96 % of control

CSc1ccc(OC(=O)Nc2cccc(F)c2)cc1
inactive: dose: 100.0 mg/kg/injection, schedule: Q01DX001 (ip), vehicle: Klucel (hydroxypropylcellulose) (HPC) 88 % of control | [4] 105 % of control and 109 % of control | [19] 101 % of control and 91 % of control | [12] 104 % of control and 124 % of control | dose: 200.0 mg/kg/injection, schedule: Q01DX001 (ip), vehicle: Klucel (hydroxypropylcellulose) (HPC) 101 % of control | [5] 100 % of control and 101 % of control | [20] 94 % of control and 98 % of control | [13] 107 % of control and 120 % of control | dose: 400.0 mg/kg/injection, schedule: Q01DX001 (ip), vehicle: Klucel (hydroxypropylcellulose) (HPC) 104 % of control | [14] 109 % of control and 90 % of control | [21] 93 % of control and 94 % of control | [15] 104 % of control
